Laboratory results reported in US20260027116A1, “Methods of Treating Chronic Graft-Versus-Host Disease Following Allogeneic Hematopoietic Stem Cell Transplantation” (Kadmon Corporation, LLC, priority 2022, published 2026).

Test system: patients with cGVHD
Settings: Cohort 1 200 mg QD

CC(C)NC(=O)COc1cccc(-c2nc(Nc3ccc4[nH]ncc4c3)c3ccccc3n2)c1 [Belumosudil, 2-{3-[4-(1H-indazol-5-ylamino)-2-quinazolinyl]phenoxy}-N-(propan-2-yl) acetamide]
Rash erythematous: # Events: 0 | Rash erythematous: Affected/At Risk (%): 0/17 (0%) | Rash maculo-papular: # Events: 2 | Rash maculo-papular: Affected/At Risk (%): 2/17 (11.76%) | Rash pustular: # Events: 0 | Rash pustular: Affected/At Risk (%): 0/17 (0%) | Rash: # Events: 2 | Rash: Affected/At Risk (%): 1/17 (5.88%) | Red blood cells urine positive: # Events: 0 | Red blood cells urine positive: Affected/At Risk (%): 0/17 (0%) | Renal failure: # Events: 0 | Renal failure: Affected/At Risk (%): 0/17 (0%) | Respiratory syncytial virus infection: # Events: 0 | Respiratory syncytial virus infection: Affected/At Risk (%): 0/17 (0%) | Respiratory tract infection fungal: # Events: 1 | Respiratory tract infection fungal: Affected/At Risk (%): 1/17 (5.88%) | Respiratory tract infection: # Events: 1 | Respiratory tract infection: Affected/At Risk (%): 1/17 (5.88%) | Restless legs syndrome: # Events: 0 | Restless legs syndrome: Affected/At Risk (%): 0/17 (0%) | Rosacea: # Events: 0 | Rosacea: Affected/At Risk (%): 0/17 (0%) | SAE, No. (%): 5 (29) | Sinus pain: # Events: 2 | Sinus pain: Affected/At Risk (%): 2/17 (11.76%) | Sinusitis: # Events: 1 | Sinusitis: Affected/At Risk (%): 1/17 (5.88%) | Skin abrasion: # Events: 0 | Skin abrasion: Affected/At Risk (%): 0/17 (0%) | Skin lesion: # Events: 0 | Skin lesion: Affected/At Risk (%): 0/17 (0%) | Skin papilloma: # Events: 1 | Skin papilloma: Affected/At Risk (%): 1/17 (5.88%) | Spinal compression fracture: # Events: 1 | Spinal compression fracture: Affected/At Risk (%): 1/17 (5.88%) | Squamous cell carcinoma of skin: # Events: 0 | Squamous cell carcinoma of skin: Affected/At Risk (%): 0/17 (0%) | Stomatitis: # Events: 2 | Stomatitis: Affected/At Risk (%): 1/17 (5.88%) | Superior vena cava syndrome: # Events: 0 | Superior vena cava syndrome: Affected/At Risk (%): 0/17 (0%) | TEAE, participants (%): 17 (100%) participants | TESAE, participants (%): 5 (29%) participants | Tachycardia: # Events: 0 | Tachycardia: Affected/At Risk (%): 0/17 (0%) | Tendonitis: # Events: 0 | Tendonitis: Affected/At Risk (%): 0/17 (0%) | Testicular pain: # Events: 1 | Testicular pain: Affected/At Risk (%): 1/17 (5.88%) | Testicular swelling: # Events: 1 | Testicular swelling: Affected/At Risk (%): 1/17 (5.88%) | Thoracic spinal stenosis: # Events: 1 | Thoracic spinal stenosis: Affected/At Risk (%): 1/17 (5.88%) | Thrombocytopenia: # Events: 0 | Thrombocytopenia: Affected/At Risk (%): 0/17 (0%) | Thrombocytosis: # Events: 1 | Thrombocytosis: Affected/At Risk (%): 1/17 (5.88%) | Tinea pedis: # Events: 0 | Tinea pedis: Affected/At Risk (%): 0/17 (0%) | Tooth fracture: # Events: 0 | Tooth fracture: Affected/At Risk (%): 0/17 (0%) | Total other adverse events: Affected/At Risk (%): 17/17 (100%) | Transfusion reaction: # Events: 1 | Transfusion reaction: Affected/At Risk (%): 1/17 (5.88%) | Tremor: # Events: 3 | Tremor: Affected/At Risk (%): 2/17 (11.76%) | Type 2 diabetes mellitus: # Events: 1 | Type 2 diabetes mellitus: Affected/At Risk (%): 1/17 (5.88%) | Ulcerative keratitis: # Events: 0 | Ulcerative keratitis: Affected/At Risk (%): 0/17 (0%) | Upper respiratory tract infection: # Events: 16 | Upper respiratory tract infection: Affected/At Risk (%): 9/17 (52.94%) | Upper-airway cough syndrome: # Events: 0 | Upper-airway cough syndrome: Affected/At Risk (%): 0/17 (0%) | Urinary retention: # Events: 0 | Urinary retention: Affected/At Risk (%): 0/17 (0%) | Urinary tract infection: # Events: 0 | Urinary tract infection: Affected/At Risk (%): 0/17 (0%) | Urinary tract pain: # Events: 0 | Urinary tract pain: Affected/At Risk (%): 0/17 (0%) | Urine output decreased: # Events: 1 | Urine output decreased: Affected/At Risk (%): 1/17 (5.88%) | Vascular access complication: # Events: 0 | Vascular access complication: Affected/At Risk (%): 0/17 (0%)
